Test results from patent US10001584B2, “Optical film, and polarizing plate and liquid crystal display device that use this optical film” (FUJIFILM Corporation, priority 2013, dated 2018).
Like-named read-outs stand apart in the source and are kept apart here.

Assays:
[1] = Volatility: mass change rate of the compound by TG/DTA, held at 140° C. for 1 hour; assay type: physicochemical; details: for Volatility: held at 140° C. for 1 hour; for volatility suppression effect: in words, discussion of Table 1
Description: The compound denoted by Formula (I) in the present invention was heated from room temperature to 140° C. by using a TG/DTA measurement device (TG/DTA7200 manufactured by Hitachi High-Tech Science Corporation), a change rate of the mass of the compound at the time of being held at 140° C. for 1 hour (a change rate with respect to the mass before being heated) was measured, and the volatility was evaluated on the basis of the following criteria.

[2] = pKa by alkali titration with automatic potentiometric titrator; assay type: physicochemical; details: mixed solvent THF/H2O=6/4 (volume ratio), 25° C.; for pKa: Table 1
Description: pKa of the obtained exemplificative compound was measured in a mixed solvent having a volume ratio of tetrahydrofuran (THF)/water (H2O)=6/4 at 25° C. by an alkali titration method using automatic potentiometric titrator [AT-610: manufactured by Kyoto Electronics Manufacturing Co., Ltd.].
The pKa of the compound of the present invention and the comparative compound in a mixed solvent having a volume ratio of tetrahydrofuran (THF)/water (H2O)=6/4 at 25° C. was measured by an alkali titration method using automatic potentiometric titrator (AT-610: manufactured by Kyoto Electronics Manufacturing Co., Ltd.).

[3] = tetrahydrofuran/water 6/4 (v/v) mixed solvent, read-out: pKa

O=C(O)CN(CC(=O)O)Cc1ccccc1 [(0-2)]
Volatility ([1]; compound alone, Table 1): B (The change rate of the mass of greater than or equal to 0.2% and less than 0.5%) | volatility suppression effect [1]: insufficient | pKa [2, 3]: 3.2

CCC(Oc1ccc(C(C)(C)CC)cc1C(C)(C)CC)C(=O)Nc1cccc(C(=O)O)c1 (stereo not shown) [(0-3)]
Volatility ([1]; compound alone, Table 1): A (The change rate of the mass of less than or equal to 0.2%) | pKa [2, 3]: 6.6

O=C1NC(=O)N(Cc2ccccc2)C(=O)C1c1ccccc1 (stereo not shown) [Comparative Compound (0-1)]
Volatility ([1]; compound alone, Table 1): B (The change rate of the mass of greater than or equal to 0.2% and less than 0.5%) | volatility suppression effect [1]: insufficient | pKa [2, 3]: 3.7

O=C(O)CN(CC(=O)OCc1ccccc1)CC(=O)OCc1ccccc1 [Exemplificative Compound (1-1)]
Volatility ([1]; additive, Table 3): A (The change rate of the mass of less than or equal to 0.2%) | Volatility ([1]; additive, Table 4): A (The change rate of the mass of less than or equal to 0.2%) | Volatility ([1]; compound alone, Table 1): A (The change rate of the mass of less than or equal to 0.2%) | pKa Value [2]: 6.0 | pKa [2]: 6.0
